# Measured values as given in the supplement of paper PMC10307832.
# Experiments:
# Experiment in all cases: relative viability (nuclei count vs DMSO), 5 days (fraction); higher = more cells survive
# [1] = system: HCC-827
# Outline: (§1)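 Lung cancer cell lines in 1536-well plates got either a single drug or a fixed anchor-drug dose together with five library-drug doses (not always all listed) in √10 steps, by pin tool, on the day after seeding. Nuclei were counted after 5 days, and relative viability is the treated-to-vehicle ratio of nuclei counts. Values are medians of duplicate plates.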
# [2] = system: NCI-H2087
# Outline: as §1
# [3] = system: CAL-12T
# Outline: as §1
# [4] = system: HCC-366
# Outline: as §1
# [5] = system: NCI-H1993
# Outline: as §1
# [6] = system: NCI-H727
# Outline: as §1
# [7] = system: LCLC-97TM1
# Outline: as §1
# [8] = system: COR-L 105
# Outline: as §1
# [9] = system: NCI-H2009
# Outline: as §1
# [10] = system: NCI-H2170
# Outline: as §1
# [11] = system: HOP-62
# Outline: as §1
# [12] = system: LXF-289
# Outline: as §1
# [13] = system: PC-3 [JPC-3]
# Outline: as §1
# [14] = system: PC-14
# Outline: as §1
# [15] = system: HARA
# Outline: as §1
# [16] = system: COR-L23
# Outline: as §1
# [17] = system: HCC-44
# Outline: as §1
# [18] = system: LC-2-ad
# Outline: as §1
# [19] = system: BEN
# Outline: as §1
# [20] = system: SK-MES-1
# Outline: as §1
# [21] = system: LU99A
# Outline: as §1
# [22] = system: HCC-15
# Outline: as §1
# [23] = system: NCI-H2126
# Outline: as §1
smiles,measurement,setting,value
O=c1[nH]c2ccccc2n1C1CCN(CCCC(c2ccc(F)cc2)c2ccc(F)cc2)CC1 [Pimozide] + COc1cccc2cc(-c3nc([C@H]4CC[C@H](C(=O)O)CC4)n4ncnc(N)c34)[nH]c12 [OSI-027] (partner 0.5 µM),relative viability,[1]; first compound 0.253 µM,0.801
same,relative viability,[1]; first compound 0.8 µM,0.738
same,relative viability,[1]; first compound 2.53 µM,0.782
same,relative viability,[1]; first compound 8 µM,0.769
same,relative viability,[2]; first compound 0.08 µM,0.765
same,relative viability,[2]; first compound 0.253 µM,0.55
same,relative viability,[2]; first compound 2.53 µM,0.427
same,relative viability,[2]; first compound 8 µM,0.377
same,relative viability,[3]; first compound 0.08 µM,0.756
same,relative viability,[3]; first compound 0.253 µM,0.706
same,relative viability,[3]; first compound 0.8 µM,0.673
same,relative viability,[3]; first compound 2.53 µM,0.41
same,relative viability,[3]; first compound 8 µM,0.561
same,relative viability,[4]; first compound 0.08 µM,0.825
same,relative viability,[4]; first compound 0.253 µM,0.795
same,relative viability,[4]; first compound 0.8 µM,0.477
same,relative viability,[4]; first compound 2.53 µM,0.614
same,relative viability,[4]; first compound 8 µM,0.206
same,relative viability,[5]; first compound 0.08 µM,0.562
same,relative viability,[5]; first compound 0.253 µM,0.572
same,relative viability,[5]; first compound 0.8 µM,0.539
same,relative viability,[5]; first compound 2.53 µM,0.581
same,relative viability,[5]; first compound 8 µM,0.479
same,relative viability,[6]; first compound 0.08 µM,0.717
same,relative viability,[6]; first compound 0.253 µM,0.55
same,relative viability,[6]; first compound 0.8 µM,0.512
same,relative viability,[6]; first compound 2.53 µM,0.652
same,relative viability,[6]; first compound 8 µM,0.54
same,relative viability,[7]; first compound 0.08 µM,0.488
same,relative viability,[7]; first compound 0.253 µM,0.363
same,relative viability,[7]; first compound 0.8 µM,0.447
same,relative viability,[7]; first compound 2.53 µM,0.422
same,relative viability,[7]; first compound 8 µM,0.278
same,relative viability,[8]; first compound 0.253 µM,0.778
same,relative viability,[8]; first compound 0.8 µM,0.617
same,relative viability,[8]; first compound 2.53 µM,0.64
same,relative viability,[8]; first compound 8 µM,0.58
same,relative viability,[9]; first compound 0.08 µM,0.69
same,relative viability,[9]; first compound 0.253 µM,0.655
same,relative viability,[9]; first compound 0.8 µM,0.671
same,relative viability,[9]; first compound 2.53 µM,0.526
same,relative viability,[9]; first compound 8 µM,0.416
same,relative viability,[10]; first compound 0.08 µM,0.617
same,relative viability,[10]; first compound 0.253 µM,0.628
same,relative viability,[10]; first compound 0.8 µM,0.681
same,relative viability,[10]; first compound 2.53 µM,0.692
same,relative viability,[10]; first compound 8 µM,0.551
same,relative viability,[11]; first compound 0.08 µM,0.859
same,relative viability,[11]; first compound 0.253 µM,0.806
same,relative viability,[11]; first compound 2.53 µM,0.759
same,relative viability,[11]; first compound 8 µM,0.773
same,relative viability,[12]; first compound 0.08 µM,0.693
same,relative viability,[12]; first compound 0.253 µM,0.786
same,relative viability,[12]; first compound 0.8 µM,0.773
same,relative viability,[12]; first compound 2.53 µM,0.811
same,relative viability,[12]; first compound 8 µM,0.716
same,relative viability,[13]; first compound 0.08 µM,0.338
same,relative viability,[13]; first compound 0.253 µM,0.739
same,relative viability,[13]; first compound 0.8 µM,0.688
same,relative viability,[13]; first compound 2.53 µM,0.746
same,relative viability,[13]; first compound 8 µM,0.685
same,relative viability,[14]; first compound 0.08 µM,0.182
same,relative viability,[14]; first compound 0.253 µM,0.743
same,relative viability,[14]; first compound 0.8 µM,0.764
same,relative viability,[14]; first compound 2.53 µM,0.624
same,relative viability,[14]; first compound 8 µM,0.621
same,relative viability,[15]; first compound 0.253 µM,0.518
same,relative viability,[15]; first compound 0.8 µM,0.196
same,relative viability,[15]; first compound 2.53 µM,0.384
same,relative viability,[15]; first compound 8 µM,0.264
same,relative viability,[16]; first compound 0.08 µM,0.757
same,relative viability,[16]; first compound 0.253 µM,0.75
same,relative viability,[16]; first compound 0.8 µM,0.694
same,relative viability,[16]; first compound 2.53 µM,0.731
same,relative viability,[16]; first compound 8 µM,0.639
same,relative viability,[17]; first compound 0.08 µM,0.489
same,relative viability,[17]; first compound 0.253 µM,0.554
same,relative viability,[17]; first compound 0.8 µM,0.4
same,relative viability,[17]; first compound 2.53 µM,0.52
same,relative viability,[17]; first compound 8 µM,0.289
same,relative viability,[18]; first compound 0.08 µM,0.694
same,relative viability,[18]; first compound 0.253 µM,0.875
same,relative viability,[18]; first compound 0.8 µM,0.735
same,relative viability,[18]; first compound 2.53 µM,0.681
same,relative viability,[18]; first compound 8 µM,0.635
same,relative viability,[19]; first compound 0.08 µM,0.275
same,relative viability,[19]; first compound 0.253 µM,0.293
same,relative viability,[19]; first compound 0.8 µM,0.307
same,relative viability,[19]; first compound 2.53 µM,0.321
same,relative viability,[19]; first compound 8 µM,0.304
same,relative viability,[20]; first compound 0.08 µM,0.61
same,relative viability,[20]; first compound 0.253 µM,0.572
same,relative viability,[20]; first compound 0.8 µM,0.546
same,relative viability,[20]; first compound 2.53 µM,0.586
same,relative viability,[20]; first compound 8 µM,0.463
same,relative viability,[21]; first compound 0.08 µM,0.277
same,relative viability,[21]; first compound 0.253 µM,0.277
same,relative viability,[21]; first compound 0.8 µM,0.228
same,relative viability,[21]; first compound 2.53 µM,0.302
same,relative viability,[21]; first compound 8 µM,0.291
same,relative viability,[22]; first compound 0.08 µM,0.817
same,relative viability,[22]; first compound 0.253 µM,0.668
same,relative viability,[22]; first compound 0.8 µM,0.472
same,relative viability,[22]; first compound 2.53 µM,0.618
same,relative viability,[22]; first compound 8 µM,0.573
same,relative viability,[23]; first compound 0.08 µM,0.711
same,relative viability,[23]; first compound 0.253 µM,0.63
same,relative viability,[23]; first compound 0.8 µM,0.755
same,relative viability,[23]; first compound 2.53 µM,0.712
same,relative viability,[23]; first compound 8 µM,0.744
